Test results as given in US4444780A, “Method for treating atopic dermatitis” (priority 1982, dated 1984).
Entries after “also recorded” stand apart in the source; their conditions may differ. Like-named read-outs stand apart in the source and are kept apart here.

Assays:
[1] = test system: passive cutaneous anaphylaxis reaction; experiment: Passive Cutaneous Anaphylaxis Test (PCA), topical antiallergic activity; format: in vivo, Male Sprague Dawley rats; conditions: for inhibition in vivo at 0.02 % / inhibition in vivo at 0.2 % / inhibition in vivo at 2 % / inhibition in vivo at 0.01 % / inhibition in vivo at 1 %: Rattus norvegicus, read-out: Percent Inhibition
From the text: Male Sprague Dawley rats (175-200 grams) were sensitized intradermally with 0.1 cc of high dilution of antiovalbumin antiserum (IgE-containing) that was predetermined to cause a well circumscribed and reproducible skin wheal response. Two intradermal sensitization sites were applied to the backs of each rat. […] One hour later the rats were challenged intravenously with a solution containing 0.5% ovalbumin and 0.5% Evans blue dye in a saline vehicle. Twenty minutes later the rats were killed by carbon dioxide asphyxiation, the dorsal skin reflected and the blue wheal measured as the mean of the two largest perpendiculars. This mean was used to calculate the area of the wheal according to [A=π(d/2)^2 ]. The wheal area under the drug-treated site was used as an index of local topical activity and the distant site served as an index of systemic activity.

[2] = test system: K^+ -stimulated Ca^++ -uptake in rabbit aortic slices; experiment: Calcium Uptake in Rabbit Aorta (K+-stimulated Ca++ uptake in aortic slices); format: cell-based, New Zealand white rabbits; conditions: for inhibition of K+-stimulated Ca++ uptake (in words): rabbit aortic slices, FIG. 2; for effects on calcium mechanisms / calcium movement assays (in words): summary over aortic uptake and contraction assays
Procedure: Female, New Zealand white rabbits (1-2 kg) were sacrificed by cervical dislocation, and the thoracic […] was immediately removed, cleaned, and sliced into rings (5-20 mg). The tissue was preincubated at 37° C. for 60 minutes. […] After allowing radioactive calcium uptake to occur for 45 minutes, the reaction was stopped by transferring the tissue to a wash-out solution containing 80 mM LaCl3 for 30 minutes. The tissue was removed, blotted of excess moisture, and weighed. The aortic slices were then placed into scintillation vials containing 1 ml Protosol tissue solubilizer and incubated overnight at 55° C. After coding and acidifying, the samples were counted to determine ^45 Ca uptake. Sample results were normalized to counts per minutes per mg, wet tissue weight.

[3] = target: T1, Δ5 -lipoxygenase (Rattus norvegicus, UniProt P12527); experiment: Lipoxygenase activity in Rat Basophilic Leukemia Cells (RBL-1), 5-HETE formation; format: cell-based; conditions: for effect on lipoxygenase activity (in words): rat basophilic cells
T1 construct: Crude cell extract was used as the source of the Δ5 -lipoxygenase enzyme; endogenous in cells; host or cells: RBL-1 (rat basophilic leukemia) cells, whole or sonicated crude extract
T1 sequence (P12527 1-673): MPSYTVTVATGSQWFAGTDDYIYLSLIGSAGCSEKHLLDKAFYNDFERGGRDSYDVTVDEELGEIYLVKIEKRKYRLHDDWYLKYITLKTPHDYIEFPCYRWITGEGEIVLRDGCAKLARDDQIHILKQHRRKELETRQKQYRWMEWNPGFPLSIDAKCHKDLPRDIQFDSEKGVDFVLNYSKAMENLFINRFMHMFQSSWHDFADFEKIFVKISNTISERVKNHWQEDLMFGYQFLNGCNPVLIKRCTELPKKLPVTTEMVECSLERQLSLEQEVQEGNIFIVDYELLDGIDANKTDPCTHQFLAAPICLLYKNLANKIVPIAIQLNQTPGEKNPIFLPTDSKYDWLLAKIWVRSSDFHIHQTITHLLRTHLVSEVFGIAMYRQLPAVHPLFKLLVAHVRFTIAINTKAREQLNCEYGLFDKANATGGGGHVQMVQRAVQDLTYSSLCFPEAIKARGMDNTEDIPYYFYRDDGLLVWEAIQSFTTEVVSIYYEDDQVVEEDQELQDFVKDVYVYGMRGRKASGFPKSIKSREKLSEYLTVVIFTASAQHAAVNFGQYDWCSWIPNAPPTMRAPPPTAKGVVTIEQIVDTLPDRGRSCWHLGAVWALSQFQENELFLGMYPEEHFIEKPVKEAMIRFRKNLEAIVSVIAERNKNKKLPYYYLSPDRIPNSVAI
Procedure: Rat basophilic leukemia cells (RBL-1) are basophilic members of the leukocyte series and constitute a circulating form of the mast cell, i.e. they share many or all of the biochemical features of the mast cell involved in mediator release. As leukemic cells they are readily available as they can be grown in culture. RBL-1 cells were grown in minimal essential medium (MEM) containing 10% fetal calf serum, 5% calf serum, 2 mM glutamine, and 50 μg/ml gentamicin. The cells were harvested for each assay, washed once with 50 mM potassium phosphate, 1 mM EDTA, and 0.1% gelatin, pH=7.0. The cells were then resuspended to a concentration of 1.85×10^7 cells/ml. For broken cell assays (i.e. to measure direct effects on the enzyme), these cells were sonicated in an ultrasonic sonifier for 3 minutes while maintaining the sample temperature at 4° C. Crude cell extract was used as the source of the Δ5 -lipoxygenase enzyme. […] The reaction was stopped by the addition of 1 M citric acid to give a final pH of approximately 3.5. The reaction mixture was extracted with diethylether, brought to dryness under a stream of nitrogen and the residues were resuspended and spotted on Gilman ITLC silica gel-impregnated glass filter strips. Synthetic hydroxyeicosotetraenoic acid (5-HETE) standard was spotted with each sample and the sheets were developed in isoctane:2-butanone:glacial acetic acid (100:9:1). After development, the sheets were dried, and the 5-HETE standard was visualized in a tank of iodine crystals. Areas corresponding to 5-HETE were quantitated by liquid scintillation counting. The remainder of each lane was also counted in four sections. Activity was determined as the percent conversion of the total counts in each lane to the area corresponding to 5-HETE. Percent inhibition was calculated from the change in percent conversion in the presence of drug. Blanks determined in the presence of boiled cells were subtracted from all values.

[4] = test system: K^+ -Stimulated Ca^++ -mediated Contractions of Rabbit Aortic Strips; experiment: Potassium-Induced Calcium-Mediated Contraction of Aortic Strips; format: cell-based, New Zealand strain rabbits; conditions: for IC50: Oryctolagus cuniculus, read-out: IC50, K+-stimulated Ca++-mediated contractions
From the text: New Zealand strain rabbits (1-1.5 kg) were sacrificed by cervical dislocation and the thoracic cavity was opened to expose a section of the aorta. A section of the aorta from the diaphragm to the aortic arch was isolated, dissected out and immediately placed in chilled Krebs bicarbonate buffer solution. A 2 inch section of the aorta was supported on a glass rod in a petri dish with chilled Krebs bicarbonate solution and cleaned of excess tissue. The aorta was then cut into helical strips (3×30 mm) and suspended from a FT03 isometric force displacement transducer coupled to a Beckman recorder. The tissue bath was filled with Krebs bicarbonate buffer maintained at 37° C. and bubbled with 95% 02 and 5% CO2. The helical strips were allowed to equilibrate for 1.5 to 2 hours with a 4 gram resting load. The tissues were dosed in a cumulative manner with 10 mM, 15 mM, 20 mM, 30 mM, 40 mM, 80 mM and 120 mM KCl. The tissues were washed several times after the KCl treatment and were allowed to equilibrate for 1-1.5 hours until a baseline equivalent to 4 grams tension was achieved. A second dose-response to KCl was repeated and again washed and allowed to equilibrate. […] Changes in grams tension were recorded.

[5] = RBL-1, 1 μM, read-out: % Inhibition of lipoxygenase activity
[6] = RBL-1, 100 μM, read-out: % Inhibition of lipoxygenase activity
[7] = RBL-1, read-out: % Inhibition of lipoxygenase activity

| SMILES | inhibition in vivo at 0.02 % ([1]; Topical Dose 0.02%) [%] | inhibition in vivo at 0.2 % ([1]; Topical Dose 0.20%) [%] | inhibition in vivo at 2 % ([1]; Topical Dose 2.00%) [%] | Significance (P < .05) of inhibition ([1]; Topical Dose 0.02%) | Significance (P < .05) of inhibition ([1]; Topical Dose 0.20%) | Significance (P < .05) of inhibition ([1]; Topical Dose 2.00%) | activity in the PCA test (in words) ([1]; topical) | effect on lipoxygenase activity (in words) [3] | Significance (P < .05) of inhibition ([1]; Topical Dose 1.00%) | inhibition of vascular contraction (in words) ([4]; rabbit aortic strips) | inhibition at 100 µM [3, 7] [%] | further results |
| --- | --- | --- | --- | --- | --- | --- | --- | --- | --- | --- | --- | --- |
| CN(C)CCC(c1ccc(Cl)cc1)c1ccccn1 (stereo not drawn) [Chlorpheniramine, chlorpheniramine] | 20 | 16.3 | 16.7 | No | No | No | totally inactive | totally inactive; also recorded: None of the compounds produced significant inhibition |  |  |  | Inhibition of 45Ca++ Uptake Aortic Slices (summary grade) ([2]; Table 4 grade, symbols not defined): +; inhibition of K+-stimulated Ca++ uptake (in words) [2]: totally inactive; effects on calcium mechanisms / calcium movement assays (in words) [2]: marginal effects; inhibition at 1 µM [3, 5]: 0%; inhibition at 100 µM [3, 6]: 1% |
| CN1CCC(=C2c3ccccc3C=Cc3ccccc32)CC1 [Cyproheptadine, cyproheptadine] |  |  |  |  |  |  | potent topical antiallergic effect | statistically equipotent effects on lipoxygenase activity from either whole or broken cells | Yes | potent inhibitors | 78 | inhibition in vivo at 0.01 % ([1]; topical): 11.7%; inhibition in vivo at 1 % ([1]; topical): 98.1%; Significance (P < .05) of inhibition ([1]; Topical Dose 0.01%): No; Percent Inhibition ([1]; Topical Dose 0.10%): 25.0%; Significance (P < .05) of inhibition ([1]; Topical Dose 0.10%): Yes; topical ED50, inhibition in the PCA test ([1]; topical 0.1 ml, 1 hour before challenge, vehicle water/alcohol/N-decylmethylsulfoxide, 95% F.L. 0.07, 0.25): 0.13%; inhibition of cutaneous allergic reaction (in words) ([1]; topical, 1% dose): virtually complete inhibition; IC50 ([2]; Oryctolagus cuniculus, read-out: IC50, K+-stimulated Ca++ uptake): ~1 µM |
| CN(C)CCOC(c1ccccc1)c1ccccc1 [Diphenhydramine, diphenhydramine] | 0 | 8.5 | 43.9 | No | No | No | inactive |  |  |  |  |  |
| Fc1ccc(C(c2ccc(F)cc2)N2CCN(C/C=C/c3ccccc3)CC2)cc1 [Flunarizine, flunarizine] | 16.3 | 13 | 17.2 | No | No | No | inactive |  |  |  |  |  |
| OCCOCCN1CCN(C(c2ccccc2)c2ccc(Cl)cc2)CC1 (stereo not drawn) [Hydroxyzine, hydroxyzine] |  |  |  |  |  |  | totally inactive | totally inactive; also recorded: None of the compounds produced significant inhibition | No | orders of magnitude less potent |  | inhibition in vivo at 0.01 % ([1]; Topical Dose 0.01%): 0%; inhibition in vivo at 1 % ([1]; Topical Dose 1.00%): 0%; Significance (P < .05) of inhibition ([1]; Topical Dose 0.01%): No; Percent Inhibition ([1]; Topical Dose 0.10%): 9.7%; Significance (P < .05) of inhibition ([1]; Topical Dose 0.10%): No; inhibition of K+-stimulated Ca++ uptake (in words) [2]: did not produce 50% inhibition even at a concentration of an order of magnitude greater than the IC50 for cyproheptadine; effects on calcium mechanisms / calcium movement assays (in words) [2]: marginal effects; IC50 ([4]; rabbit aortic strips): 50 µM; inhibition at 1 µM [3, 5]: 0%; inhibition at 100 µM [3, 6]: 15% |
| CC[C@@H](CO)NC(=O)[C@@H]1C=C2c3cccc4c3c(cn4C)C[C@H]2N(C)C1 [Methysergide, methysergide] |  |  |  |  |  |  |  | None of the compounds produced significant inhibition |  |  | 30 | inhibition at 1 µM [3, 7]: 1% |
| CN(C)CCOc1ccccc1Cc1ccccc1 [Phenyltoloxamine, phenyltoloxamine] | 2.6 | 14.3 | 25.9 | No | No | No | inactive |  |  |  |  |  |
| COc1ccc(CCN(C)CCCC(C#N)(c2ccc(OC)c(OC)c2)C(C)C)cc1OC (stereo not drawn) [Verapamil, verapamil] |  |  |  |  |  |  | totally inactive | slight activity; also recorded: None of the compounds produced significant inhibition with the exception of the very high dose (1×10^-4 M) of verapamil | No | potent inhibitors | 51 | inhibition in vivo at 1 % ([1]; topical): 0%; IC50 [4]: 0.55 µM; inhibition at 1 µM [3, 7]: 0% |
